{
  "source": "patent US20110189260A1",
  "about": "“USE OF ZINC CHELATORS TO INHIBIT BIOFILM FORMATION” (UNIVERSITY OF CINCINNATI, priority 2008, published 2011)",
  "molecules": {"B1": {"name": "H75A/H85A Brpt1.5 mutant (other)", "chain": "VDGDSITSTEEIPFDKKREFDPNLAPGTEKVVQKGEPGTKTITTPTTKNPLTGEKVGEGEPTEKITKQPVDEIVAYGGEQIPQGAKDEFDPNAPVDSKTEVPGKPGVKNPDTGEVVTPPVDDVTKYGPVDGDSITSTEEIPFDKKREFDPNLAPGTEKVVQKGEPGTKTITTPTTKNPLTGEKVGEGKSTEKVTKQPVDEIVEYGPTK", "notes": "also called histidine-null mutant"}, "B2": {"name": "Brpt1.5: single G5 domain of Aap B-repeat region followed by the C-terminal 79 amino acid half-repeat (protein)", "chain": "B1 chain with A75H, A85H"}, "B3": {"name": "Brpt1.5 (C-terminal G5 domain of the B-repeat region of Aap followed by the C-terminal 79 amino acid half-repeat) (other)", "chain": "B1 chain with A75H, A85H", "notes": "also called wild-type Brpt1.5; zinc adhesion module"}},
  "key": {"[1]": {"tested_on": "Staphylococcus aureus Strain Rosenbach SA113", "test": "Biofilm formation assay in FBS pre-treated 96 well plates, crystal violet (Example 9)", "type": "cell-based", "details": "SA113, 2% glucose, 36-40 hours", "protocol": "In addition, 96 well microtiter plates were pre-treated with fetal bovine serum (FBS) at 4° C. for at least 24 hours prior to use. The FBS was aspirated prior to addition of chelators and glucose for the assay. […] The 96 well plates were then incubated 36-40 hours statically at 37° C. Media was aspirated by pipet and wells were washed twice with filtered water. The plates were dried by inversion for 1 hour, and stained with 0.1% crystal violet for 15 minutes. Crystal violet was then aspirated by pipet and washed once with filtered water. The plates were then read on a spectrophotometer at a wavelength of 570 nm."}, "[2]": {"tested_on": "S. epidermidis RP62A biofilms", "test": "RP62A biofilms on polystyrene visualized with crystal violet (FIG. 3A, 3C, 4, 7, 8)", "type": "cell-based", "details": "RP62A on polystyrene, FIG. 3A", "protocol": "(§1) FIG. 3. (A) S. epidermidis RP62A biofilms formed on polystyrene and were visualized with crystal violet; addition of the Zn^2+ chelator DTPA (≧30 μM) inhibits biofilm formation. Representative wells have been scanned (bottom). Untreated (“RP62A”) and vehicle (“HCl”) controls are shown. Error bars show standard deviation (* indicates p<0.05 relative to untreated control; n=3); (B) Methicillin-resistant S. aureus USA300 biofilms form on fibronectin-coated plates but are inhibited by addition of DTPA (≧30 μM). (*: p<0.05; n=4); (C) Addition of 5-20 μM ZnCl2 at a minimal inhibitory dose of DTPA (30 μM) rescues biofilm formation by RP62A.\nFIG. 4. […] (*: p<0.05 relative to RP62A control at the relevant Zn^2+ concentration; n=3); (B) Dose response of biofilm inhibition by MBP-Brpt1.5 at a fixed 1 mM ZnCl2 concentration. (*: p<0.0005; n=3); (C) The “zinc zipper” model for intercellular adhesion in staphylococcal biofilms mediated by zinc-dependent self-association of G5 domains.\nFIG. 7. […] All data at 30 μM DTPA show statistically significant decreases compared to no-treatment control (RP62A). Statistically significant increases over the 0 μM MnCl2/30 μM DTPA datapoint are marked with an asterisk (*).\nTo test the physiological role of Zn^2+-mediated G5 adhesion in the formation of staphylococcal biofilms, both S. epidermidis and S. aureus biofilms were grown in culture in the presence or absence of the Zn^2+ chelator diethylenetriaminepentaacetic acid (DTPA). DTPA was non-toxic at all concentrations tested (up to 100 μM). S. epidermidis strain RP62A formed robust biofilms when cultured in media alone, but biofilm growth was inhibited by non-toxic doses of DTPA (≧30 μM) (FIG. 3A).\nTo determine whether Zn^2+-dependent biofilm formation is specifically dependent upon G5 domain-mediated self-assembly, soluble Brpt1.5 was added to S. epidermidis RP62A biofilms as a maltose-binding protein (MBP) fusion. Because of the higher Zn^2+ concentrations required to induce dimerization in the short construct compared to full-length Aap, inhibition by MBP-Brpt1.5 was tested at Zn^2+ concentrations ranging up to 1 mM. RP62A biofilms were inhibited by soluble MBP-Brpt1.5 in the presence of 0.75 and 1 mM ZnCl2, whereas addition of MBP alone had no effect (FIG. 4A). […] Thus, addition of even a single intact zinc adhesion module in a soluble form is capable of inhibiting biofilm formation, highlighting the role of this domain as a Zn^2+-dependent adhesion module in staphylococcal biofilms."}, "[3]": {"tested_on": "Methicillin-Resistant Staphylococcus aureus Strain USA300", "test": "Biofilm formation assay in fibronectin pre-treated 96 well plates, crystal violet (Example 11)", "type": "cell-based", "details": "USA300, 2% glucose, 36-40 hours", "protocol": "S. aureus strain USA300 was obtained from Daniel Hassett (University of Cincinnati) as a glycerol stock. 3 ml overnight cultures were grown in blood-heart infusion broth (BHI) shaking at 37° C., where cultures were diluted 1:25 for use in the biofilm assay. 2% glucose (20 ul from a 20% glucose stock) was added to each well prior to the addition of bacterial culture to promote biofilm formation. In addition, 96 well microtiter plates were pre-treated with human fibronectin (BD biomedical purchased from Fisher scientific). The fibronectin was aspirated prior to addition of chelators and glucose for the assay. Each chelator (prepared in Examples 1-6) was added directly to a 96 well microtiter plate in a series of dilutions. 20 μl of each stock solution (200, 400, 800, 1600, 3200, 6400, 13000, or 26000 μM chelator) was added to each well. 200 μl of the 1:25 dilution of USA300 bacterial culture dilution (as previously specified) were added to each well. Controls with bacterial culture media only and bacterial culture media plus vehicle controls only (final concentrations 10 mM HCl, 10% ethanol, and 10 mM NaOH) were added to wells alone without chelator. The 96 well plates were then incubated 36-40 hours statically at 37° C. Media was aspirated by pipet and wells were washed twice with filtered water. The plates were dried by inversion for 1 hour, and stained with 0.1% crystal violet for 15 minutes. Crystal violet was then aspirated by pipet and washed once with filtered water. The plates were then read on a spectrophotometer at a wavelength of 570 nm. An absorbance greater than 0.1 indicates biofilm formation."}, "[4]": {"tested_on": "Methicillin-resistant S. aureus USA300 biofilms", "test": "USA300 biofilms on fibronectin-coated plates (FIG. 3B, 3D)", "type": "cell-based", "details": "USA300 on fibronectin-coated plates, FIG. 3B", "protocol": "as §1\nS. aureus strain USA300, which is responsible for recent epidemic outbreaks of community-acquired methicillin-resistant S. aureus (MRSA) infections, formed biofilms on fibronectin-coated plates. As observed for S. epidermidis, the MRSA biofilms were inhibited by Zn^2+ chelation (≧30 μM DTPA) (FIG. 3B). […] Like S. epidermidis, the MRSA strain USA300 could be rescued by the addition of 15-20 μM ZnCl2 (FIG. 3D). Importantly, at the minimal inhibitory concentration of DTPA (30 μM), biofilm growth by both staphylococcal species could be rescued by the addition of 5-20 μM ZnCl2; these Zn^2+ concentrations are similar to the physiological range in human plasma (12-16 μM resting concentration)."}, "[5]": {"tested_on": "Methicillin-Resistant Staphylococcus epidermidis Strain RP62a", "test": "Biofilm formation assay in 96 well plates, crystal violet, absorbance at 570 nm (Example 8)", "type": "cell-based", "details": "18-24 hours, 37° C.", "protocol": "S. epidermidis strain RP62a (ATCC 35984) was obtained as a glycerol stock from ATCC. 3 ml overnight cultures were grown in tryptic soy broth (TSB, BD Biomedical), shaking at 37° C., and cultures were diluted 1:200 in TSB for use in the biofilm assay.\nEach chelator (prepared in Examples 1-6) was added directly to a 96 well microtiter plate in a series of dilutions. 20 μl of each stock solution (200, 400, 800, 1600, 3200, 6400, 13000, or 26000 μM chelator) was added to each well. 200 μl of the 1:200 dilution of RP62a bacterial culture (as previously specified) was added to each well. Controls with bacterial culture media only and bacterial culture media plus vehicle controls only (i.e., final concentrations 10 mM HCl, 10% ethanol, or 10 mM NaOH) were added to wells alone without chelator. The 96 well plates were then incubated 18-24 hours statically at 37° C. Media was aspirated by pipet and wells were washed twice with filtered water. The plates were dried by inversion for 1 hour, and stained with 0.1% crystal violet for 15 minutes. Crystal violet was then aspirated by pipet and washed once with filtered water. The plates were then read on a spectrophotometer at a wavelength of 570 nm. An absorbance greater than 0.1 indicates biofilm formation."}, "[6]": {"details": "Ca; cited from earlier work"}, "[7]": {"details": "Mg; cited from earlier work"}, "[8]": {"details": "Sr; cited from earlier work"}, "[9]": {"details": "Zn; cited from earlier work"}, "[10]": {"details": "Mn; cited from earlier work"}, "[11]": {"tested_on": "S. epidermidis RP62A biofilms", "test": "RP62A biofilms on polystyrene visualized with crystal violet (FIG. 3A, 3C, 4, 7, 8)", "type": "cell-based"}, "[12]": {"target": "Brpt2.5 (Aap construct with two G5 domains and the C-terminal cap) (Staphylococcus epidermidis)", "test": "sedimentation equilibrium AUC at 0 mM Zn; sequence mass monomer 35,971, dimer 71,942"}, "[13]": {"target": "Brpt2.5 (Aap construct with two G5 domains and the C-terminal cap) (Staphylococcus epidermidis)", "test": "sedimentation equilibrium AUC at 10 mM Zn; sequence mass monomer 35,971, dimer 71,942"}, "[14]": {"target": "Brpt2.5 (Aap construct with two G5 domains and the C-terminal cap) (Staphylococcus epidermidis)", "test": "sedimentation equilibrium AUC, monomer-dimer association at 2 mM Zn"}, "[15]": {"target": "Brpt2.5 (Aap construct with two G5 domains and the C-terminal cap) (Staphylococcus epidermidis)", "test": "sedimentation equilibrium AUC, monomer-dimer association at 5 mM Zn"}, "[16]": {"target": "Brpt2.5 (Aap construct with two G5 domains and the C-terminal cap) (Staphylococcus epidermidis)"}, "[17]": {"target": "the molecule itself", "test": "sedimentation velocity analytical ultracentrifugation; self-association with and without 10 mM ZnCl2, normalized c(s) [panel E]"}, "[18]": {"tested_on": "G5 domains of Aap (Zn^2+-mediated monomer-dimer association)", "details": "10 mM ZnCl2, pH 7.4 to 6.0, FIG. 6B", "experimental": "The dashed line label (- - -) represents cation-free Brpt1.5; (B) Far-UV CD spectrum of Brpt1.5 in the presence (squares) and absence (triangles) of Zn; (C) Sedimentation equilibrium analysis of Zn^2+-mediated dimerization of Brpt1.5 (triangles) and Brpt2.5 (squares). […] Error bars show 95% confidence intervals; (D) Linked equilibrium plot of Zn binding by Brpt1.5.\n(A) Sedimentation velocity analysis of the Zn^2+-dependent dimerization of Brpt1.5 as a function of pH in 20 mM Tris, 20 mM MES, 50 mM NaCl, and 10 mM ZnCl2. […] Dashed lines show data collected in the absence of Zn^2+, and solid lines show data collected at 10 mM ZnCl2.\nTo analyze the linked equilibria between dimerization and Zn^2+ binding, the logarithm of the dimerization association constant was plotted against the logarithm of the free Zn^2+ concentration to reveal the net number of Zn^2+ ions participating in the dimerization interface."}, "[19]": {"target": "the molecule itself", "test": "sedimentation equilibrium AUC, monomer-dimer association at 10 mM Zn; 10 mM Zn (ZnCl2), sedimentation equilibrium"}, "[20]": {"target": "the molecule itself", "test": "sedimentation equilibrium AUC, monomer-dimer association at 2 mM Zn; 2 mM Zn (ZnCl2), sedimentation equilibrium"}, "[21]": {"target": "the molecule itself", "test": "sedimentation equilibrium AUC, monomer-dimer association at 5 mM Zn; 5 mM Zn (ZnCl2), sedimentation equilibrium"}, "[22]": {"target": "the molecule itself"}},
  "note": "Where a chain is given by its changes, count along the chain named. Names may count otherwise. Where two headings read alike, the source gives them in different places.",
  "data": [
    {"molecule": "O=C(O)CN(CCN(CC(=O)O)CC(=O)O)CCN(CC(=O)O)CC(=O)O", "note": "[DTPA, diethylenetriaminepentaacetic acid]", "values": [
      {"measurement": "chelator concentration at which biofilms were inhibited (absorbance of 0.1 or less)", "setting": "[1]", "result": 20, "unit": "µM"},
      {"measurement": "concentration that inhibits biofilm formation", "setting": "[2]", "result": "≥ 30", "unit": "µM"},
      {"measurement": "chelator concentration at which biofilms were diminished but not cleared", "setting": "[3]", "result": 20, "unit": "µM"},
      {"measurement": "concentration that inhibits biofilm formation", "setting": "[4]", "result": "≥ 30", "unit": "µM"},
      {"measurement": "chelator concentration at which biofilms were diminished but not cleared", "setting": "[5]", "result": 20, "unit": "µM"},
      {"measurement": "chelator concentration at which biofilms were inhibited (absorbance of 0.1 or less)", "setting": "[5]", "result": 40, "unit": "µM"},
      {"measurement": "affinity for DTPA (log K)", "setting": "[6]", "result": 10.74},
      {"measurement": "affinity for DTPA (log K)", "setting": "[7]", "result": 9.3},
      {"measurement": "affinity for DTPA (log K)", "setting": "[8]", "result": 9.68},
      {"measurement": "affinity for DTPA (log K)", "setting": "[9]", "result": 18.75},
      {"measurement": "affinity for DTPA (log K)", "setting": "[10]", "result": 15.5},
      {"measurement": "disruption of pre-formed biofilms", "setting": "[11]", "result": "did not disrupt"}
    ]},
    {"molecule": "Brpt2.5 (Aap construct with two G5 domains and the C-terminal cap)", "values": [
      {"measurement": "Mexperimental (molecular weight)", "setting": "[12]", "result": 37000},
      {"measurement": "Mexperimental (molecular weight)", "setting": "[13]", "result": 78500},
      {"measurement": "Kd", "setting": "[14]", "result": 25.5, "unit": "µM"},
      {"measurement": "Kd", "setting": "[15]", "result": 0.072, "unit": "µM"},
      {"measurement": "EC50 of [Zn2+] for dimerization", "setting": "[16]", "result": 3700, "unit": "µM"}
    ]},
    {"molecule": "B1", "values": [
      {"measurement": "binding result", "setting": "[17]", "result": "binds"}
    ]},
    {"molecule": "B2", "values": [
      {"measurement": "apparent pKa of dimer to monomer transition", "setting": "[18]", "result": 6.7}
    ]},
    {"molecule": "B3", "values": [
      {"measurement": "Kd", "setting": "[19]", "result": 0.353, "unit": "µM"},
      {"measurement": "Kd", "setting": "[20]", "result": 113, "unit": "µM"},
      {"measurement": "Kd", "setting": "[21]", "result": 5.06, "unit": "µM"},
      {"measurement": "EC50 of [Zn2+] for dimerization", "setting": "[22]", "result": 5400, "unit": "µM"}
    ]}
  ]
}
